Measurements published in PubChem BioAssay AID248 (DTP/NCI, 2004).
Several values for one entry are separate records, joined by “and”; a condition that tells them apart may be missing. Equal values may be shown once. Inconclusive results and toxic doses are left out. No stated cut-off is given here; in the data, active means T/C of 150% or more; inactive means T/C below 125%.

Test system: L1210 leukemia ip in BDF1 mice, survival T/C
Assay: NCI In Vivo Anticancer Drug Screen. Data for tumor model L1210 Leukemia (intraperitoneal) in B6D2F1 (BDF1) mice
Details: endpoint: mean survival time, higher = longer survival
Summary of the method: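 Each compound was tested against a transplantable tumor grown in mice. The endpoint was survival, with treated animals benchmarked against vehicle controls as a simple ratio.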

[1] = dose: 100.0 mg/kg/injection, schedule: Q04DX003 (ip), vehicle: saline
[2] = dose: 200.0 mg/kg/injection, schedule: Q04DX003 (ip), vehicle: saline
[3] = dose: 400.0 mg/kg/injection, schedule: Q04DX003 (ip), vehicle: saline
[4] = dose: 100.0 mg/kg/injection, schedule: Q01DX001 (ip), vehicle: carboxymethylcellulose (CMC)
[5] = dose: 200.0 mg/kg/injection, schedule: Q01DX001 (ip), vehicle: carboxymethylcellulose (CMC)
[6] = dose: 100.0 mg/kg/injection, schedule: Q01DX009 (ip), vehicle: Klucel (hydroxypropylcellulose) (HPC)
[7] = dose: 200.0 mg/kg/injection, schedule: Q01DX009 (ip), vehicle: Klucel (hydroxypropylcellulose) (HPC)
[8] = dose: 100.0 mg/kg/injection, schedule: Q04DX003 (ip), vehicle: saline with Tween-80
[9] = dose: 200.0 mg/kg/injection, schedule: Q04DX003 (ip), vehicle: saline with Tween-80
[10] = dose: 100.0 mg/kg/injection, schedule: Q04DX002 (ip), vehicle: Klucel (hydroxypropylcellulose) (HPC)
[11] = dose: 100.0 mg/kg/injection, schedule: Q04DX002 (ip), vehicle: other
[12] = dose: 200.0 mg/kg/injection, schedule: Q04DX002 (ip), vehicle: Klucel (hydroxypropylcellulose) (HPC)
[13] = dose: 200.0 mg/kg/injection, schedule: Q04DX002 (ip), vehicle: other
[14] = dose: 400.0 mg/kg/injection, schedule: Q04DX002 (ip), vehicle: Klucel (hydroxypropylcellulose) (HPC)
[15] = dose: 50.0 mg/kg/injection, schedule: Q01DX001 (ip), vehicle: saline
[16] = dose: 100.0 mg/kg/injection, schedule: Q01DX001 (ip), vehicle: saline
[17] = dose: 200.0 mg/kg/injection, schedule: Q01DX001 (ip), vehicle: saline
[18] = dose: 400.0 mg/kg/injection, schedule: Q01DX001 (ip), vehicle: saline
[19] = dose: 100.0 mg/kg/injection, schedule: Q01DX001 (ip), vehicle: Klucel (hydroxypropylcellulose) (HPC)
[20] = dose: 200.0 mg/kg/injection, schedule: Q01DX001 (ip), vehicle: Klucel (hydroxypropylcellulose) (HPC)
[21] = dose: 400.0 mg/kg/injection, schedule: Q01DX001 (ip), vehicle: Klucel (hydroxypropylcellulose) (HPC)
[22] = dose: 100.0 mg/kg/injection, schedule: Q01DX009 (ip), vehicle: saline
[23] = dose: 100.0 mg/kg/injection, schedule: Q04DX002 (ip), vehicle: saline
[24] = dose: 200.0 mg/kg/injection, schedule: Q04DX002 (ip), vehicle: saline
[25] = dose: 400.0 mg/kg/injection, schedule: Q04DX002 (ip), vehicle: saline
[26] = dose: 50.0 mg/kg/injection, schedule: Q01DX009 (ip), vehicle: saline with Tween-80
[27] = dose: 100.0 mg/kg/injection, schedule: Q01DX009 (ip), vehicle: saline with Tween-80
[28] = dose: 200.0 mg/kg/injection, schedule: Q01DX009 (ip), vehicle: saline with Tween-80

Measured: T/C

O=S(/C=C/c1ccccc1)c1ccc(Br)cc1 (stereo unspecified)
inactive: [1] 100 % of control | [2] 93 % of control | [3] 100 % of control

O=C(/C=C/c1ccc([N+](=O)[O-])o1)c1cccc([N+](=O)[O-])c1
inactive: dose: 25.0 mg/kg/injection, schedule: Q01DX009 (ip), vehicle: Klucel (hydroxypropylcellulose) (HPC) 100 % of control | dose: 50.0 mg/kg/injection, schedule: Q01DX009 (ip), vehicle: Klucel (hydroxypropylcellulose) (HPC) 103 % of control

Nc1ccc2c(ccc3ccc4ccccc4c32)c1
inactive: dose: 75.0 mg/kg/injection, schedule: Q01DX001 (ip), vehicle: carboxymethylcellulose (CMC) 97 % of control

O=C(c1ccccc1)c1ccc(Br)cc1O
inactive: [4] 105 % of control | [5] 98 % of control | dose: 400.0 mg/kg/injection, schedule: Q01DX001 (ip), vehicle: carboxymethylcellulose (CMC) 100 % of control

CN1C(=O)CN=C(c2ccc[nH]2)c2cc(Cl)ccc21 (tested in a mixture with another compound)
inactive: [6] 96 % of control | dose: 100.0 mg/kg/injection, schedule: Q04DX003 (ip), vehicle: Klucel (hydroxypropylcellulose) (HPC) 103 % of control | [7] 91 % of control | dose: 200.0 mg/kg/injection, schedule: Q04DX003 (ip), vehicle: Klucel (hydroxypropylcellulose) (HPC) 102 % of control | dose: 400.0 mg/kg/injection, schedule: Q04DX003 (ip), vehicle: Klucel (hydroxypropylcellulose) (HPC) 105 % of control

O=C(N/N=C\c1ccc(Cl)cc1)c1ccccc1
inactive: [8] 99 % of control | [9] 100 % of control

NC(=O)c1c2n(c3ncnc(N)c13)C1OC(CO)C(O)C1S2 (stereo unspecified)
inactive: dose: 25.0 mg/kg/injection, schedule: Q01DX009 (ip), vehicle: water 91 % of control | dose: 50.0 mg/kg/injection, schedule: Q01DX009 (ip), vehicle: water 91 % of control

CCCCNC(=O)OCc1cnc(C)n1Cc1ccccc1
inactive: dose: 25.0 mg/kg/injection, schedule: Q01DX009 (ip), vehicle: other 93 % of control and 107 % of control | [4] 104 % of control | [10] 94 % of control | [11] 96 % of control and 105 % of control | [5] 108 % of control | [12] 98 % of control | [13] 93 % of control and 86 % of control | [14] 94 % of control

CCN(CC)C(=S)Oc1c(C(C)(C)C)cc([N+](=O)[O-])c(C)c1[N+](=O)[O-]
inactive: [10] 90 % of control | [12] 100 % of control | [14] 97 % of control

Cc1ccc(C(=O)Cc2ccc(C#N)cc2)cc1
inactive: [15] 98 % of control | [16] 96 % of control | [17] 104 % of control | [18] 98 % of control

CC(C)c1ccc(/C=N/NC(=S)Nc2ccccc2)cc1
inactive: [6] 93 % of control | [7] 93 % of control | dose: 400.0 mg/kg/injection, schedule: Q01DX009 (ip), vehicle: Klucel (hydroxypropylcellulose) (HPC) 90 % of control

CCCN(CCC)c1ccc(/C=C\c2ccncc2)cc1
inactive: [19] 98 % of control | [20] 103 % of control | [21] 98 % of control

O=C1CC2CC1C(C(=O)O)C2C(=O)O (stereo unspecified)
inactive: [16] 98 % of control | [22] 96 % of control | [17] 96 % of control | dose: 200.0 mg/kg/injection, schedule: Q01DX009 (ip), vehicle: saline 96 % of control | [18] 96 % of control and 98 % of control | dose: 400.0 mg/kg/injection, schedule: Q01DX009 (ip), vehicle: saline 98 % of control

COC(=O)C(CCl)NC(=O)NCCCl (stereo unspecified)
inactive: [19] 96 % of control | [20] 96 % of control | [21] 96 % of control

CCCCOCCOCCOC(C)Oc1ccc(C(=O)OC)cc1 (stereo unspecified)
inactive: [23] 92 % of control | [24] 99 % of control | [25] 101 % of control

O=C(O)C(Nc1ccc(Oc2ccc(NC(C(=O)O)c3ccccc3)cc2)cc1)c1ccccc1 (stereo unspecified)
inactive: [10] 100 % of control | [12] 100 % of control | [14] 100 % of control

CSc1n[n+](-c2ccccc2)cs1
inactive: [16] 103 % of control | [17] 103 % of control | [18] 100 % of control

CC[n+]1csc2ccccc21
inactive: dose: 75.0 mg/kg/injection, schedule: Q01DX001 (ip), vehicle: saline 102 % of control | dose: 150.0 mg/kg/injection, schedule: Q01DX001 (ip), vehicle: saline 105 % of control | dose: 300.0 mg/kg/injection, schedule: Q01DX001 (ip), vehicle: saline 97 % of control

CCc1ccc(NC(=S)Nc2ccccc2)cc1
inactive: [11] 108 % of control | [13] 90 % of control

O=[N+]([O-])c1ccc(N/N=C(/CCCCl)c2ccccc2)c([N+](=O)[O-])c1
inactive: [8] 96 % of control | [9] 95 % of control | dose: 400.0 mg/kg/injection, schedule: Q04DX003 (ip), vehicle: saline with Tween-80 91 % of control

CNc1cccc2c1C(=O)c1ccccc1C2=O
inactive: [10] 96 % of control | [12] 92 % of control | [14] 96 % of control

CN(C)S(=O)(=O)ON1C(=O)c2ccccc2C1=O
inactive: dose: 75.0 mg/kg/injection, schedule: Q01DX001 (ip), vehicle: other 103 % of control | dose: 150.0 mg/kg/injection, schedule: Q01DX001 (ip), vehicle: other 108 % of control | dose: 300.0 mg/kg/injection, schedule: Q01DX001 (ip), vehicle: other 94 % of control

Oc1ccc(O)c(Cl)c1
inactive: [15] 107 % of control | dose: 50.0 mg/kg/injection, schedule: Q04DX002 (ip), vehicle: saline 106 % of control | [19] 94 % of control | [16] 107 % of control | [23] 92 % of control | [20] 94 % of control

CCS(=O)CC
inactive: [23] 106 % of control | [1] 101 % of control and 108 % of control | [24] 89 % of control | [2] 94 % of control and 97 % of control | [25] 95 % of control | [3] 101 % of control and 104 % of control

CC12CCCCC1=CC(OC(=O)c1ccc([N+](=O)[O-])cc1)CC2 (stereo unspecified)
inactive: [26] 94 % of control | [27] 98 % of control | [28] 94 % of control

COC(=O)c1ccncc1
inactive: [1] 101 % of control | [2] 98 % of control | [3] 104 % of control

c1ccc(C[N+](Cc2ccccc2)=C2CCCCC2)cc1
inactive: dose: 50.0 mg/kg/injection, schedule: Q01DX009 (ip), vehicle: saline 92 % of control | [22] 100 % of control | [1] 98 % of control | [2] 103 % of control

NC1CC(=O)NC1=O (stereo unspecified)
inactive: [23] 93 % of control | [24] 100 % of control | [25] 100 % of control

C=C=CC(C=O)(CC)CCCC (stereo unspecified)
inactive: [26] 91 % of control | [27] 94 % of control | [28] 98 % of control

CC(C)CCC1(C)CC(=O)Nc2ccccc21 (stereo unspecified)
inactive: [16] 97 % of control | [17] 94 % of control | [18] 95 % of control

CC(C)C(=O)CCC1CCCCC1
inactive: dose: 100.0 mg/kg/injection, schedule: Q01DX001 (ip), vehicle: saline with Tween-80 100 % of control | dose: 200.0 mg/kg/injection, schedule: Q01DX001 (ip), vehicle: saline with Tween-80 100 % of control | dose: 400.0 mg/kg/injection, schedule: Q01DX001 (ip), vehicle: saline with Tween-80 97 % of control

CCCSCCNC(=O)NCCSCCC
inactive: [11] 107 % of control | [13] 104 % of control | dose: 400.0 mg/kg/injection, schedule: Q04DX002 (ip), vehicle: other 100 % of control

Cc1ccccc1NC(=O)C1CCCC1=O (stereo unspecified)
inactive: [15] 101 % of control | [16] 103 % of control | [18] 109 % of control
